From doi:10.1101/208439v1 (biorxiv, 2017) come the findings set out here.

SMILES strings stand for the structures. Where two headings read alike, the source gives them in different places.

As usually defined, the IC50 is the concentration needed to halve the response being measured.

The target in assay [1] is T1, EZH2 Complex (Homo sapiens, UniProt Q15910, Y641F).
T1 construct: five-member complex, Flag-EED, other subunits His-tagged, insect cells; with Zinc finger protein AEBP2; Polycomb protein EED; Polycomb protein SUZ12
The experiment in a line: HotSpot [3H]SAM filter-binding methyltransferase assay. Type of assay: biochemical.

Assay [2] concerns the target DNMT3a (Homo sapiens, UniProt Q9Y6K1). The experiment in a line: biochemical.
For assay [3], the target named is T2, PRMT1 (Homo sapiens, UniProt Q99873).
T2 construct: residues 2-371, N-terminal GST fusion, E. coli
The experiment in a line: HotSpot [3H]SAM filter-binding methyltransferase assay. Type of assay: biochemical.

The target in assay [4] is MLL4 Complex (Homo sapiens, UniProt Q9UMN6). The description is as above. Type of assay: biochemical. Also noted: gene KMT2B; complex assembled as MLL1; MLL4 here is KMT2B (NM_014727), His tag, E. coli; with WD repeat-containing protein 5; Set1/Ash2 histone methyltransferase complex subunit ASH2; Protein dpy-30 homolog.
In assay [5] the target is DNMT1 (Homo sapiens, UniProt P26358). The experiment in a line: biochemical.
For assay [6], the target named is T3, NSD2 (Homo sapiens, UniProt O96028, T1150A).
T3 construct: full length (residues 2-1365), N-terminal His tag, insect cell/baculovirus
T3 sequence (O96028 2-1365 T1150A): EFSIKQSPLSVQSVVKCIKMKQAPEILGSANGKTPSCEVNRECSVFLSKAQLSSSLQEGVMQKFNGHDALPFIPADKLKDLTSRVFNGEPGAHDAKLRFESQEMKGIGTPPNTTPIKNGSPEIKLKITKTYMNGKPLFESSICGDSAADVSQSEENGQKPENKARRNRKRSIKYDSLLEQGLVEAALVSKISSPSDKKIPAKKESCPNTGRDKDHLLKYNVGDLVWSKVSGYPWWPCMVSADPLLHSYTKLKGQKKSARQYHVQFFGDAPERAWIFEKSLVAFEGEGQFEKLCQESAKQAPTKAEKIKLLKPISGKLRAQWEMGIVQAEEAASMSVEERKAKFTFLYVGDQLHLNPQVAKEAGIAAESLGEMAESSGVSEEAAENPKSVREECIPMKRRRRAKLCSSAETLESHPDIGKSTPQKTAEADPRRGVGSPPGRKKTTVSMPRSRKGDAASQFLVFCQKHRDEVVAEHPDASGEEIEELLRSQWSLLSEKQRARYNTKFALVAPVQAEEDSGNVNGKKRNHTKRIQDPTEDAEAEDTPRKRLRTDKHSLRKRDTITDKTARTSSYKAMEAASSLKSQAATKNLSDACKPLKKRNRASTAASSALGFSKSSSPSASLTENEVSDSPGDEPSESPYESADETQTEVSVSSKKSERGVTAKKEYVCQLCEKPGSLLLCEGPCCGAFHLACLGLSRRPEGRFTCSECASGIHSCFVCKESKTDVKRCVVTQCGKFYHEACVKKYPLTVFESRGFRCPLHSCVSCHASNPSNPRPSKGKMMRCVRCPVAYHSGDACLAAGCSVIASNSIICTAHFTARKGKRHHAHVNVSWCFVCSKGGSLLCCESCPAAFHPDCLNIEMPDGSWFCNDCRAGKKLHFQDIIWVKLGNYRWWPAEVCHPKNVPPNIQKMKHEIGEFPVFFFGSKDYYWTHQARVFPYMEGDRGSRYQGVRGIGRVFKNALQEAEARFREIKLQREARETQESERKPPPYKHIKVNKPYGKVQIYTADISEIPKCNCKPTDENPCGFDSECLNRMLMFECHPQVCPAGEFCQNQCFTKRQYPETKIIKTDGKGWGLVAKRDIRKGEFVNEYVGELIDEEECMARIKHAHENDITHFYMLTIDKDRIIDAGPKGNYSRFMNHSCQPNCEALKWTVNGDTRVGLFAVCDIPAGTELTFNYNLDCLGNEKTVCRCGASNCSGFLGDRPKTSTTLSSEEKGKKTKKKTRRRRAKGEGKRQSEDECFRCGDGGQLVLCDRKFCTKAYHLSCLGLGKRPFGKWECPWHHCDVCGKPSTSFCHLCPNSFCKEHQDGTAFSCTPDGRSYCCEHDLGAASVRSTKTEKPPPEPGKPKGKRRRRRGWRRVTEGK
The experiment in a line: HotSpot [3H]SAM filter-binding methyltransferase assay. It is filed as biochemical.

In assay [7] the target is T4, EZH2 Complex (Homo sapiens, UniProt Q15910).
T4 construct: five-member complex, Flag-EED, other subunits His-tagged, insect cells; with Zinc finger protein AEBP2; Polycomb protein EED; Polycomb protein SUZ12
The assay is described as above. It is filed as biochemical.

The target of assay [8] is T5, SMYD1 (Homo sapiens, UniProt Q8NB12).
T5 sequence (Q8NB12 1-490): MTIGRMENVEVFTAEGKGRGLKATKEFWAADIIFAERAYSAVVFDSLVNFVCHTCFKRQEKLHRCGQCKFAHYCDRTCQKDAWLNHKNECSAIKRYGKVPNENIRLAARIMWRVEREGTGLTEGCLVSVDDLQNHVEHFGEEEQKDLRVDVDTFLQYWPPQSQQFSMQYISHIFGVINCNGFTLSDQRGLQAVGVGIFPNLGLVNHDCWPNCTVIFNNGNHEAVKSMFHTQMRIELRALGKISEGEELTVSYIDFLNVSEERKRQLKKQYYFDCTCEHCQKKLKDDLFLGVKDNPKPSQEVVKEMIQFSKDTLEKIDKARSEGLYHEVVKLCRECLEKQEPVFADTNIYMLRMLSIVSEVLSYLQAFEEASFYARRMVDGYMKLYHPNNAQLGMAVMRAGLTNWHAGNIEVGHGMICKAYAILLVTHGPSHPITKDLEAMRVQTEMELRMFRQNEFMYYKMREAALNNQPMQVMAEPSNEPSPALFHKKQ
The experiment in a line: biochemical.

Where [9] appears, read: read-out: DA3003-1 IC50, inhibitor.
Setting [10] is: nucleosomes, […] SAM, pH […] MgCl2, […] DTT, […] °C, single experiment.
Setting [11] is: core histone, […] SAM, pH […] EDTA, […] DTT, […] °C, single experiment.

T1 sequence (Q15910 2-746 Y641F): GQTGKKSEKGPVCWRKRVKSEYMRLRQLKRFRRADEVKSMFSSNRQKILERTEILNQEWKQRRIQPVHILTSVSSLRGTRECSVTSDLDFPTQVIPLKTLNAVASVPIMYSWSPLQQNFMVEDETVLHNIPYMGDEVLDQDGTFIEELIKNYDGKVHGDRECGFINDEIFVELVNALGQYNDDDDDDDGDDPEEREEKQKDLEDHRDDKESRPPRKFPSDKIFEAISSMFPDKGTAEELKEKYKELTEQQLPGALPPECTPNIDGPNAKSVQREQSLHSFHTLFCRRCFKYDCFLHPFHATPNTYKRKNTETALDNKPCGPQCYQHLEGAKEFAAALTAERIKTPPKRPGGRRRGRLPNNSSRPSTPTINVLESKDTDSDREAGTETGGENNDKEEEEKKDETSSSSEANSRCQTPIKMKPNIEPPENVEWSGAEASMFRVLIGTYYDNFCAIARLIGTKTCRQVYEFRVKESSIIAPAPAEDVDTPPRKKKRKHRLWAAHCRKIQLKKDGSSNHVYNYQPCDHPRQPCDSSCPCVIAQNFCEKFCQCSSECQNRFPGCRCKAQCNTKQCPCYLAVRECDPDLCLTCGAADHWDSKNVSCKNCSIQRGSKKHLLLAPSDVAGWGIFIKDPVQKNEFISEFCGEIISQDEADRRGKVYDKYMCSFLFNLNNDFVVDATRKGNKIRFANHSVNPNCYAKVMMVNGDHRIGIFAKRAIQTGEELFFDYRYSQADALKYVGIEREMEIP
T1 sequence (O75530 2-441 partner): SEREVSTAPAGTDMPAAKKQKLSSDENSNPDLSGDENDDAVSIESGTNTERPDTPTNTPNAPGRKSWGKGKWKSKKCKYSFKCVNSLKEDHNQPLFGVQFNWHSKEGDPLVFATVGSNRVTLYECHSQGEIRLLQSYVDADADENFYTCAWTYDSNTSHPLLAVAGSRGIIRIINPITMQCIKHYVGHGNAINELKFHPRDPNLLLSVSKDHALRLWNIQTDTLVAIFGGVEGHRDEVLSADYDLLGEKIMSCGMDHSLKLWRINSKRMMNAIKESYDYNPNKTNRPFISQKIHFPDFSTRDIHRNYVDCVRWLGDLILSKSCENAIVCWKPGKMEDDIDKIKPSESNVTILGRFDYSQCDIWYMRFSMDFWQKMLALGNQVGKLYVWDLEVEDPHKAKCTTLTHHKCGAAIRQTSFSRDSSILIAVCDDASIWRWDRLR
T1 sequence (Q15022 2-739 partner): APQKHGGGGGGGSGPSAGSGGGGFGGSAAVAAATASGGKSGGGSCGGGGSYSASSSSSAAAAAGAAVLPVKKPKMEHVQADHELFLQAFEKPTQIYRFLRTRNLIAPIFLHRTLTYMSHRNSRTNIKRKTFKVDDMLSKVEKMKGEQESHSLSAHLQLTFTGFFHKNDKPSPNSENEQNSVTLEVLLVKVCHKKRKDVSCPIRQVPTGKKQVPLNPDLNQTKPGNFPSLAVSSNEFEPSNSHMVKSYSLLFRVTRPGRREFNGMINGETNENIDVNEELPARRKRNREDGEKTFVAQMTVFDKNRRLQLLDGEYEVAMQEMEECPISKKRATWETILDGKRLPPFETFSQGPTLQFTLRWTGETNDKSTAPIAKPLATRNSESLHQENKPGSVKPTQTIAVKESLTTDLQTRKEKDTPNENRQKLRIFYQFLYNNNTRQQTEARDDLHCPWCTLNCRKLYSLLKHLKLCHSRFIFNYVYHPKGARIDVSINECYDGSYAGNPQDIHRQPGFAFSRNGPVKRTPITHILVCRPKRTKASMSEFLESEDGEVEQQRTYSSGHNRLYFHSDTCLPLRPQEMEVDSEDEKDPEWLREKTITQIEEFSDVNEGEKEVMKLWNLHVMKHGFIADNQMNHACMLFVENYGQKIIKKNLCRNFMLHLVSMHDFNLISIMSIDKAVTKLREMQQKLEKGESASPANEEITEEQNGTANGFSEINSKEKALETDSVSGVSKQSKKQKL
T1 sequence (Q09028 2-425 partner): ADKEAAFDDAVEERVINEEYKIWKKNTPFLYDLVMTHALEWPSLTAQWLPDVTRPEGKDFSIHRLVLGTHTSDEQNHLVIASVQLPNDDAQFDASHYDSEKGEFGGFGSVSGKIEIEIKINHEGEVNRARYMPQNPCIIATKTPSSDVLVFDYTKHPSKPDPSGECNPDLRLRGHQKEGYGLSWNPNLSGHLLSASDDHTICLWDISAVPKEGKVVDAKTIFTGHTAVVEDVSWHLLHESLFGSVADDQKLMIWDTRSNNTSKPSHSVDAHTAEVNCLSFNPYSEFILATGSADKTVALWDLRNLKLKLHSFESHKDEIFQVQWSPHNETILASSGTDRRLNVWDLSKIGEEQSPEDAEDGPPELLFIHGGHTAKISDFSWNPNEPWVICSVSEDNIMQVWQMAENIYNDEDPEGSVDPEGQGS
T1 sequence (Q6ZN18 2-517 partner): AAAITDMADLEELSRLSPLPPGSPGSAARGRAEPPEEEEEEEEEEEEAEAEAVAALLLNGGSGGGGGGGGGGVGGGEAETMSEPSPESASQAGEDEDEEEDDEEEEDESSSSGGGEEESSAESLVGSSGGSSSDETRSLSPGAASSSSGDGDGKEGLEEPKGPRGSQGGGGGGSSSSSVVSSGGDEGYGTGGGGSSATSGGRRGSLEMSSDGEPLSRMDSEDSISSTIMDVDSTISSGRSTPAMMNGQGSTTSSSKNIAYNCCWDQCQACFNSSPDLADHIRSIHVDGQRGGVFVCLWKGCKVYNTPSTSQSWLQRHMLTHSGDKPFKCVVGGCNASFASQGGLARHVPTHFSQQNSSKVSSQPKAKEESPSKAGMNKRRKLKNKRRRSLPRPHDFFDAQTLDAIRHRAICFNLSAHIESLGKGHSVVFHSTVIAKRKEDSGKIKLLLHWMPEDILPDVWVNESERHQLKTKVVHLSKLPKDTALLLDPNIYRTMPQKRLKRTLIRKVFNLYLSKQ
Sequence of DNMT1 (P26358 whole entry): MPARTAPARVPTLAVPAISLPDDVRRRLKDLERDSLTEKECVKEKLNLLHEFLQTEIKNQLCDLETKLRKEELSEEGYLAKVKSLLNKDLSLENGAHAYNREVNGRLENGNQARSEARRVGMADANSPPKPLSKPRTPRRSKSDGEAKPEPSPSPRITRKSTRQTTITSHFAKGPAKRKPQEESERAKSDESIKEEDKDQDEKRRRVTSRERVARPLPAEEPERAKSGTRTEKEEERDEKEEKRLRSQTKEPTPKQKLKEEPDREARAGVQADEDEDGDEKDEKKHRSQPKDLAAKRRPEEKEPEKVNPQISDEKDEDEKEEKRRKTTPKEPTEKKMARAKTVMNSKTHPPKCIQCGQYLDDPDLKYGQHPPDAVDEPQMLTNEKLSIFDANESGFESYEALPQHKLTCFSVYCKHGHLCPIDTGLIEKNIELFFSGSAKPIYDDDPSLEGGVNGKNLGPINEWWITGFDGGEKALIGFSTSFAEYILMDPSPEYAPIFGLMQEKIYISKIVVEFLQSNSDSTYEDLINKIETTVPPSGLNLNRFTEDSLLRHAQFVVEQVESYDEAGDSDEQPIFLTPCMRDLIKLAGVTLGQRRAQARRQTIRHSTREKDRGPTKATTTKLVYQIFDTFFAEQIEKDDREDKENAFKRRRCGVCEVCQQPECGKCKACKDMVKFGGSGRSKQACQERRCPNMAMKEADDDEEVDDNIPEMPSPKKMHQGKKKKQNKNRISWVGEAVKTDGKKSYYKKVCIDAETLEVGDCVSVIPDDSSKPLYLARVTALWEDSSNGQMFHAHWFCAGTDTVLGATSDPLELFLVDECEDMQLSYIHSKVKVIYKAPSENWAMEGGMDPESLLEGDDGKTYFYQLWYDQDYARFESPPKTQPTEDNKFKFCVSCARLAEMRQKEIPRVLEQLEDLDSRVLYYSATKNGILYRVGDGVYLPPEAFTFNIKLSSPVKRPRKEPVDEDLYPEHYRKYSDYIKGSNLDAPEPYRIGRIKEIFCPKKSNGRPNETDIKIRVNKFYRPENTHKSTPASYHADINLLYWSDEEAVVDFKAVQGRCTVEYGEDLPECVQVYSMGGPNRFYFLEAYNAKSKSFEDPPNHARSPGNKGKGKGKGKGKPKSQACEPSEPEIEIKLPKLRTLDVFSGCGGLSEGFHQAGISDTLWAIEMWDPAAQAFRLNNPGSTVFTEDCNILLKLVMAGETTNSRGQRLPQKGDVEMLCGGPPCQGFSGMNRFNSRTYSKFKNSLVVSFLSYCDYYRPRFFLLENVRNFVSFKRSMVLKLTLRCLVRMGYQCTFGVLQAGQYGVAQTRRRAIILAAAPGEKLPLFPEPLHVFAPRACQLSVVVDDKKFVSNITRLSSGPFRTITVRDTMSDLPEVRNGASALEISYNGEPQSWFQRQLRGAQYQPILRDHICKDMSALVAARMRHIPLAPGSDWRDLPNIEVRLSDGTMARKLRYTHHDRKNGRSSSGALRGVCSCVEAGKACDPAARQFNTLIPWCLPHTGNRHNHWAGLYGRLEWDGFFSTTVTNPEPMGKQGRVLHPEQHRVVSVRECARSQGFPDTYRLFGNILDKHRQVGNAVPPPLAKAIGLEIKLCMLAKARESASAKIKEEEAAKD
T4 sequence (Q15910 2-746): as the sequence (Q15910 2-746 Y641F) above, with F640Y counted along it
T4 sequence (O75530 2-441 partner): as the sequence (O75530 2-441 partner) above
T4 sequence (Q15022 2-739 partner): as the sequence (Q15022 2-739 partner) above
T4 sequence (Q09028 2-425 partner): as the sequence (Q09028 2-425 partner) above
T4 sequence (Q6ZN18 2-517 partner): as the sequence (Q6ZN18 2-517 partner) above
T2 sequence (Q99873 2-353 isoform Q99873-3): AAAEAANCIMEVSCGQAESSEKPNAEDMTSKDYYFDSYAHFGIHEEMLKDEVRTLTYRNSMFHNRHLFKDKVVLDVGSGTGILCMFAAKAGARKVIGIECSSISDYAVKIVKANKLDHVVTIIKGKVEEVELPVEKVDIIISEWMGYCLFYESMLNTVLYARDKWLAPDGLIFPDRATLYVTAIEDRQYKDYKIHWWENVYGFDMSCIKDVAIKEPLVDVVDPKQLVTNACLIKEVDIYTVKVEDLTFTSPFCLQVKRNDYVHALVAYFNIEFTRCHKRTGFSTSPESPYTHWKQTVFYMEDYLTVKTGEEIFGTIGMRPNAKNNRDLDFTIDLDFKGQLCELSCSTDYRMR

`CC1(C)CCC(CN2CCN(c3ccc(C(=O)NS(=O)(=O)c4ccc(NCC5CCOCC5)c([N+](=O)[O-])c4)c(Oc4cnc5[nH]ccc5c4)c3)CC2)=C(c2ccc(Cl)cc2)C1` [ABT-199]: the IC50 in assay [1] was found to be 21 µM; in assay [2] it was 18 µM; in assay [3] it was 83 µM; in assay [4], 0.52 µM; in assay [5] it was 44 µM; in assay [6], 2.3 µM. In assay [7], this compound showed an IC50 of 23 µM.

Regarding `O=C1C(Cl)=C(NCCN2CCOCC2)C(=O)c2ncccc21` [DA3003-1], the IC50 in assay [8] (setting [9]) amounted to 1 µM; in assay [1], 0.68 µM; in assay [2] (setting [9]), 1.1 µM; in assay [5] (setting [9]), 1.7 µM; in assay [6] (setting [10]), 0.17 µM; in assay [7] it was 0.46 µM.

Regarding `COc1cccc(-n2nc(C(=O)O)cc2-c2ccc(C3CCCCC3)c(Cl)c2)c1` [TC LPA5 4], the IC50 in assay [8] was determined as 21 µM; in assay [1] (setting [11]), 31 µM; in assay [2], 16 µM; in assay [3] (histone H4, […] SAM, pH […] MgCl2, […] DTT, […] °C, single experiment), 68 µM; in assay [4] (setting [10]), 1 µM; in assay [5], 12 µM. Further, the IC50 is 8 µM in assay [6] (setting [10]) and 40 µM in assay [7] (setting [11]).
